Results on 14 compounds are retold here after patent EP0610943A1, “Pyridinium derivatives useful as PAF antagonists” (J. URIACH & CIA. S.A., priority 1993, dated 1994).

For assay [1], the system named is Platelet aggregation induced by PAF. The assay is described as follows: Inhibition of platelet aggregation induced by PAF (Born nephelometric technique, platelet-rich plasma). The assay is classed as cell-based, male New Zealand rabbits. Particulars: rabbit platelet-rich plasma, platelet count 3x10⁵/mm³; PAF (C₁₈) 15 nM; read-out: IC₅₀. On the procedure:
Inhibition of platelet aggregation induced by PAF
Platelet-rich plasma (PRP) was prepared by centrifuging the blood at 250xg for 10 min at 4°C and then it was diluted with platelet-poor plasma (PPP) obtained by further centrifuging at 3000xg for 10 min. The platelet count was adjusted to 3x10⁵/mm³. […] The activities of the inhibitors were expressed as the IC₅₀ value, that is to say the concentration of the drug needed to inhibit platelet aggregation by 50%.

Assay [2] concerns PAF-induced hypotension. The assay is described as follows: Inhibition of the hypotensive effect induced by PAF in normotensive rats. The assay is classed as in vivo, Male Sprague Dawley rats. Conditions: i.v. through the femoral vein 3 min before PAF injection (0.5 mcg/kg, i.v.); anaesthetized rats. On the procedure: Inhibition of the hypotensive effect induced by PAF in normotensive rats.
Male Sprague Dawley rats (b.w. 180-220 g) anaesthetized with sodium pentobarbital (50 mg/kg, i.p. 1mL/100 g) were used. In order to measure the arterial pressure, a polyethylene catheter was introduced into the carotid artery. The arterial pressure was recorded with the help of a transducer coupled to a R611 Beckman polygraph. The test compounds were administered through the femoral vein 3 min before PAF injection (0.5 mcg/kg, i.v.). Control animals received only the vehicle. […]

Assay [3] has as its system ear oedema induced by arachidonic acid. Put plainly: Rodent ear oedema induced by arachidonic acid. Particulars: topical in acetone 30 min before irritant; 10% arachidonic acid, 2 mg/ear; read at 1 h; mouse ear. Type of assay: in vivo, Swiss, male mice. The procedure:
(§1) Rodent ear oedema induced by application of several irritant agents
(§2) Groups of 8-10 Swiss, male mice, 6-8 weeks old, were used in the experiments. Animals had free access to food and water. Irritant dermatitis was elicited by painting both faces of the left ear of the mouse with 20 µL (10 µL each face) of the inflammatory agents. Concentrations (w/v) of the irritants were: 10% arachidonic acid and 0.01% TPA (12-O-tetradecanoylphorbol 13-acetate), both dissolved in acetone. Total applied doses were 2 and 0.002 mg/ear, respectively. Treatment was effected by application of a total of 20 µL of the test compound dissolved in acetone to both faces of the left ear of the mouse 30 min before the application of the irritant agent. Control animals received only the vehicle. At 1 h (arachidonic acid) and 6 h (TPA) after administration of the irritant, animals were killed by cervical dislocation. An 8 mm diameter punch biopsy was performed on each ear, the right (untreated) ear being the control for each animal. The swelling induced by the irritant was quantified as the percentage increase in the weight of the left ear biopsy over that of the right ear biopsy.

Assay [4] has as its system ear oedema induced by TPA (12-O-tetradecanoylphorbol 13-acetate). The assay is described as follows: Rodent ear oedema induced by TPA. The assay is classed as in vivo, Swiss, male mice. Particulars: topical in acetone 30 min before irritant; 0.01% TPA, 0.002 mg/ear; read at 6 h; mouse ear. The procedure: as §1
as §2, with “This test was performed according to the method described by Young et al. (Pharmacological Methods in the Control of Inflammation., ed. Chang, J.Y. & Lewis, A.J. pp 215-231. New York: Alan R. Liss, 1989). Groups” for “Groups”, “biopsy. Percentage inhibition of oedema was calculated according to the following formula: [formula] Activity of the inhibitors was expressed as the ID₅₀ value, i.e. the amount of compound by weight of animal (dose) required to inhibit the increase in weight by 50%, with respect to control animals.” for “biopsy.”

Turning to “5-Bromo-3-[N-(2-ethoxycarbonylamino)ethyl-N-phenyl]carbamoyl-1-propylpyridinium chloride [Compound 2]”, the IC50 in assay [1] worked out at 4.2 nM. In addition, the ID₅₀ in assay [2] came to 0.039 mg/kg.

With “5-Bromo-3-[N-[2-(2-iodoethoxy)carbonylamino]ethyl-N-phenyl]carbamoyl-1-propylpyridinium chloride [Compound 4]”, the IC50 in assay [1] amounted to 16 nM.

For the compound “5-Bromo-3-[N-[2-(2-iodoethoxy)carbonylamino]ethyl-N-phenyl]carbamoyl₋1-propylpyridinium iodide [Compound 3]”, in assay [1], the IC50 was determined as 10 nM. In assay [3], the “ID₅₀ Arachidonic acid” value is recorded as 0.3-1 mg/ear. Also, the “ID₅₀ TPA” value in assay [4] is on record as 0.76 mg/ear.

As to “5-Bromo-3-[N-[2-(4-fluorobenzyloxy)carbonylamino]ethyl-N-phenyl]carbamoyl-1-propylpyridinium iodide [Compound 9]”, the IC50 in assay [1] was determined as 3.8 nM. Moreover, the “ID₅₀ Arachidonic acid” value in assay [3] is “≈1 mg/ear”. Besides, the “ID₅₀ TPA” value in assay [4] is reported as 0.3-1 mg/ear. In assay [2], this compound came in with an ID₅₀ of 0.079 mg/kg.

Regarding `CCC[n+]1cc(Br)cc(C(=O)N(CCNC(=O)OCC)c2ccccc2)c1.[I-]` [Compound 1, 5-Bromo-3-[N-(2₋ethoxycarbonylamino)ethyl-N-phenyl]carbamoyl-1-propylpyridinium iodide], the IC50 in assay [1] came out at 18 nM. In addition, the “ID₅₀ Arachidonic acid” value in assay [3] is 0.31 mg/ear. In assay [4], the “ID₅₀ TPA” value is recorded as 0.31 mg/ear. The ID₅₀ in assay [2] is given as 0.046 mg/kg.

In the case of `CCC[n+]1cc(Br)cc(C(=O)N(CCN2CCOC2=O)c2ccccc2)c1.[I-]` [Compound 5, 5-Bromo-3-[N-[2-(2-oxo-1,3-oxazolidin-3-yl)ethyl-N-phenyl]carbamoyl]-1-propylpyridinium iodide], the IC50 in assay [1] was determined as 36 nM. For the same compound, in assay [3], the “ID₅₀ Arachidonic acid” value is reported as “≧1 mg/ear”. Further, in assay [4], the “ID₅₀ TPA” value amounted to 0.68 mg/ear. The ID₅₀ in assay [2] worked out at 0.16 mg/kg.

Consider `CCC[n+]1cc(Br)cc(C(=O)N(CCOC(=O)NCCI)c2ccccc2)c1.[I-]` [Compound 7], for which the IC50 in assay [1] amounted to 2.1 nM. Also, in assay [3], the “ID₅₀ Arachidonic acid” value is 0.50 mg/ear. In assay [4], the “ID₅₀ TPA” value is recorded as 0.20 mg/ear. Also, the ID₅₀ in assay [2] is under 0.025 mg/kg.

Consider `CCC[n+]1cc(Br)cc(C(=O)N(CCNC(=O)OCC(F)(F)C(F)(F)F)c2ccccc2)c1.[I-]` [Compound 8, 5-Bromo-3-[N-[2-(2,2,3,3,3-pentafluoropropoxy)carbonylamino]ethyl-N-phenyl]carbamoyl-1-propylpyridinium iodide], for which the IC50 in assay [1] worked out at 4.2 nM. Besides, in assay [3], the “ID₅₀ Arachidonic acid” value is “≈1 mg/ear”. Further, the “ID₅₀ TPA” value in assay [4] is recorded as 0.3-1 mg/ear.

Take `CCC[n+]1cc(Br)cc(C(=O)N(CCNC(=O)c2ccc(C(F)(F)F)cc2)c2ccccc2)c1.[I-]` [Compound 10]: in assay [1], the IC50 is 4.5 nM. Besides, the “ID₅₀ Arachidonic acid” value in assay [3] is reported as “≈1 mg/ear”. Moreover, the “ID₅₀ TPA” value in assay [4] was 0.3-1 mg/ear.

For the compound `CCC[n+]1cc(Br)cc(C(=O)N(CCNC(=O)c2ccc(C(F)(F)F)cc2)c2ccccc2)c1.[Cl-]` [Compound 11, 5-Bromo-3-[N-[2-[(4-trifluoromethyl)phenyl]carbonylaminolethyl-N-phenyl]carbamoyl-1-propylpyridinium chloride], in assay [1], the IC50 is 23 nM.

With `CCC[n+]1cc(Br)cc(C(=O)N(CCNC(=O)c2ccc(C(F)(F)F)cc2)c2ccccc2)c1.[Cl-]` [Compound 11], the ID₅₀ in assay [2] is recorded as 0.022 mg/kg.

Consider `Cl.O=C(Cc1ccc(OCc2ccc3ccccc3n2)cc1)NCCN(C(=O)c1cncc(Br)c1)c1ccccc1` [Compound 13, 5-Bromo-3-[N-[2-[p-(2-quinolylmethoxy)phenyl]acetylamino]ethyl-N-phenyl]carbamoylpyridinium chloride], for which the IC50 in assay [1] turned out to be 52 nM. Besides, the “ID₅₀ Arachidonic acid” value in assay [3] is on record as over 0.3 mg/ear. In addition, the “ID₅₀ TPA” value in assay [4] is listed as over 0.1 mg/ear. In assay [2], this compound displayed an ID₅₀ of 0.0065 mg/kg.

With `Cl.O=C(NCCN(C(=O)c1cncc(Br)c1)c1ccccc1)c1cccc(OCc2ccc3ccccc3n2)c1` [Compound 15, 5-Bromo-3-[N-[2-[3-(2-quinolylmethoxy)phenyl]carbonylamino]ethyl-N-phenyl]carbamoylpyridinium chloride], the “ID₅₀ TPA” value in assay [4] is “≦0.1 mg/ear”.

With `Cl.O=C(NCCN(C(=O)c1cncc(Br)c1)c1ccccc1)c1ccc(OCc2ccc3ccccc3n2)cc1` [Compound 17, 5-Bromo-3-[N-[2-[p-(2-quinolylmethoxy)phenyl]carbonylamino]ethyl-N-phenyl]carbamoylpyridinium chloride], the “ID₅₀ TPA” value in assay [4] is listed as under 0.1 mg/ear.
